Measured values: patent US6737383B1, “Herbicidal oxadiazolidines” (priority 1999, dated 2004)

Columns and labels:
blackgrass = test: Test B pre/postemergence blackgrass; assay type: in vivo, Alopecurus myosuroides
How it was run: (§1)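 Response is a visual 0-to-10 score relative to untreated plants, where 0 means no effect and 10 means complete control, taken twelve to sixteen days after application. Treatments went onto soil at planting and onto foliage of 1- to 4-leaf plants, using a surfactant-containing non-phytotoxic solvent.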

surinam grass = test: Test B pre/postemergence surinam grass; assay type: in vivo, Brachiaria decumbens
How it was run: as §1

cocklebur = test: Test B pre/postemergence cocklebur; assay type: in vivo, Xanthium strumarium
How it was run: as §1

corn = test: Test B pre/postemergence corn; assay type: in vivo, Zea mays
How it was run: as §1

crabgrass = test: Test B pre/postemergence crabgrass; assay type: in vivo, Digitaria sanguinalis
How it was run: as §1

giant foxtail = test: Test B pre/postemergence giant foxtail; assay type: in vivo, Setaria faberii
How it was run: as §1

morningglory = test: Test B pre/postemergence morningglory; assay type: in vivo, Ipomoea hederacea
How it was run: as §1

pigweed = test: Test B pre/postemergence pigweed; assay type: in vivo, Amaranthus retroflexus
How it was run: as §1

rape = test: Test B pre/postemergence rape; assay type: in vivo, Brassica napus
How it was run: as §1

soybean = test: Test B pre/postemergence soybean; assay type: in vivo, Glycine max
How it was run: as §1

sugar beet = test: Test B pre/postemergence sugar beet; assay type: in vivo, Beta vulgaris
How it was run: as §1

velvetleaf = test: Test B pre/postemergence velvetleaf; assay type: in vivo, Abutilon theophrasti
How it was run: as §1

wheat = test: Test B pre/postemergence wheat; assay type: in vivo, Triticum aestivum
How it was run: as §1

wild oat = test: Test B pre/postemergence wild oat; assay type: in vivo, Avena fatua
How it was run: as §1

purple nutsedge = test: Test B pre/postemergence purple nutsedge; assay type: in vivo, Cyperus rotundus
How it was run: as §1

rice = test: Test B flood test rice; assay type: in vivo, Oryza sativa
How it was run: (§2)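 Each value is a visual injury score relative to controls, with 10 meaning complete control and 0 no effect. Evaluation took place twelve to sixteen days after the 2-leaf-stage plants were treated and kept in the greenhouse.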

smallflower flatsedge = test: Test B flood test smallflower flatsedge; assay type: in vivo, Cyperus difformis
How it was run: as §2

duck salad = test: Test B flood test duck salad; assay type: in vivo, Heteranthera limosa
How it was run: as §2

bamyardgrass = test: Test B flood test barnyardgrass; assay type: in vivo, Echinochloa crus-galli
How it was run: as §2

[1] = Postemergence, Rate 125 g/ha, scale 0 to 10, 0 is no effect, 10 is complete control
[2] = Postemergence, Rate 250 g/ha, scale 0 to 10, 0 is no effect, 10 is complete control
[3] = Postemergence, Rate 500 g/ha, scale of 0 to 10 where 0 is no effect and 10 is complete control
[4] = Preemergence, Rate 62 g/ha, scale 0 to 10 (0 no effect, 10 complete control)
[5] = Preemergence, Rate 125 g/ha, scale of 0 to 10 where 0 is no effect and 10 is complete control
[6] = Preemergence, Rate 250 g/ha, scale of 0 to 10 where 0 is no effect and 10 is complete control
[7] = Preemergence, Rate 500 g/ha, scale 0 to 10, 0 is no effect, 10 is complete control
[8] = Rate 62 g/ha, Postemergence, scale of 0 to 10 where 0 is no effect and 10 is complete control
[9] = Preemergence, Rate 250 g/ha, scale 0 to 10, 0 is no effect, 10 is complete control
[10] = Rate 62 g/ha, flood test species, Pre-emergence, visual evaluation after twelve to sixteen days
[11] = Rate 125 g/ha, under heading Pre-emergence, flood test species, visual evaluation after twelve to sixteen days
[12] = Rate 250 g/ha, Pre-emergence, flood-test species, scale 0 to 10, 0 is no effect, 10 is complete control
[13] = Rate 500 g/ha, Pre-emergence, flood test species, scale 0 to 10 (0 no effect, 10 complete control)

For Cc1nc(Cl)sc1C(C)n1c(=O)on(C(=O)N(c2ccc(F)cc2F)C(C)C)c1=O (stereo not shown) [Compound 405], the “Plant response rating, Blackgrass” value (blackgrass; [1]) was 0, the “Plant response rating, Blackgrass” value (blackgrass; [2]) was 0 and the “Blackgrass plant response rating” value (blackgrass; [3]) was 5. The “Plant response rating, Blackgrass” value (blackgrass; [4]) was 0, the “Plant response rating, Blackgrass” value (blackgrass; [5]) was 0 and the “Blackgrass plant response rating” value (blackgrass; [6]) was 0. For the same compound, the “Blackgrass plant response rating” value (blackgrass; [7]) was 0, the “Blackgrass plant response rating” value (blackgrass; [8]) was 0 and the “Plant response rating, B. signalgrass” value (surinam grass; [1]) was 0. For the same compound, the “Plant response rating, B. signalgrass” value (surinam grass; [2]) was 0, the “B. signalgrass plant response rating” value (surinam grass; [3]) was 0 and the “Plant response rating, B. signalgrass” value (surinam grass; [4]) was 0. For the same compound, the “Plant response rating, B. signalgrass” value (surinam grass; [5]) was 0, the “B. signalgrass plant response rating” value (surinam grass; [6]) was 0 and the “B. signalgrass plant response rating” value (surinam grass; Preemergence, Rate 500 g/ha, scale of 0 to 10 where 0 is no effect and 10 is complete control) was 0. The “B. signalgrass plant response rating” value (surinam grass; [8]) was 0, the “Plant response rating, Cocklebur” value (cocklebur; [1]) was 0 and the “Plant response rating, Cocklebur” value (cocklebur; [2]) was 0. For the same compound, the “Cocklebur plant response rating” value (cocklebur; [3]) was 0, the “Plant response rating, Cocklebur” value (cocklebur; [4]) was 0 and the “Plant response rating, Cocklebur” value (cocklebur; [5]) was 0. The “Cocklebur plant response rating” value (cocklebur; [9]) was 0, the “Cocklebur plant response rating” value (cocklebur; [7]) was 0 and the “Cocklebur plant response rating” value (cocklebur; [8]) was 0. For the same compound, the “Plant response rating, Corn” value (corn; [1]) was 0, the “Plant response rating, Corn” value (corn; [2]) was 0 and the “Corn plant response rating” value (corn; [3]) was 0. For the same compound, the “Plant response rating, Corn” value (corn; [4]) was 0, the “Plant response rating, Corn” value (corn; [5]) was 0 and the “Corn plant response rating” value (corn; [9]) was 0. For the same compound, the “Corn plant response rating” value (corn; [8]) was 0, the “Plant response rating, Crabgrass” value (crabgrass; [1]) was 0 and the “Plant response rating, Crabgrass” value (crabgrass; [2]) was 0. For the same compound, the “Crabgrass plant response rating” value (crabgrass; [3]) was 0, the “Plant response rating, Crabgrass” value (crabgrass; [4]) was 0 and the “Plant response rating, Crabgrass” value (crabgrass; [5]) was 1. For the same compound, the “Crabgrass plant response rating” value (crabgrass; [9]) was 8, the “Crabgrass plant response rating” value (crabgrass; [7]) was 10 and the “Crabgrass plant response rating” value (crabgrass; [8]) was 0. For the same compound, the “Plant response rating, Giant foxtail” value (giant foxtail; [1]) was 0, the “Plant response rating, Giant foxtail” value (giant foxtail; [2]) was 0 and the “Giant foxtail plant response rating” value (giant foxtail; [3]) was 6. The “Plant response rating, Giant foxtail” value (giant foxtail; [4]) was 0, the “Plant response rating, Giant foxtail” value (giant foxtail; [5]) was 8 and the “Giant foxtail plant response rating” value (giant foxtail; [9]) was 9. For the same compound, the “Giant foxtail plant response rating” value (giant foxtail; [7]) was 10, the “Giant foxtail plant response rating” value (giant foxtail; [8]) was 0 and the “Plant response rating, Morningglory” value (morningglory; [2]) was 5. The “Morningglory plant response rating” value (morningglory; [3]) was 5, the “Plant response rating, Morningglory” value (morningglory; [4]) was 0 and the “Plant response rating, Morningglory” value (morningglory; [5]) was 0. The “Morningglory plant response rating” value (morningglory; [9]) was 0, the “Morningglory plant response rating” value (morningglory; [7]) was 0 and the “Plant response rating, Redroot pigweed” value (pigweed; [2]) was 0. The “Redroot pigweed plant response rating” value (pigweed; [3]) was 0, the “Plant response rating, Redroot pigweed” value (pigweed; [4]) was 0 and the “Plant response rating, Redroot pigweed” value (pigweed; [5]) was 0. The “Redroot pigweed plant response rating” value (pigweed; [9]) was 0, the “Redroot pigweed plant response rating” value (pigweed; [7]) was 0 and the “Plant response rating, Rape” value (rape; [2]) was 0. For the same compound, the “Rape plant response rating” value (rape; [3]) was 2, the “Plant response rating, Rape” value (rape; [4]) was 0 and the “Plant response rating, Rape” value (rape; [5]) was 0. The “Rape plant response rating” value (rape; [9]) was 0, the “Rape plant response rating” value (rape; [7]) was 0 and the “Plant response rating, Soybean” value (soybean; [2]) was 2. For the same compound, the “Soybean plant response rating” value (soybean; [3]) was 3, the “Plant response rating, Soybean” value (soybean; [4]) was 0 and the “Plant response rating, Soybean” value (soybean; [5]) was 0. For the same compound, the “Soybean plant response rating” value (soybean; [9]) was 0, the “Soybean plant response rating” value (soybean; [7]) was 3 and the “Plant response rating, Sugarbeets” value (sugar beet; [2]) was 0. For the same compound, the “Sugarbeets plant response rating” value (sugar beet; [3]) was 0, the “Plant response rating, Sugarbeets” value (sugar beet; [4]) was 0 and the “Plant response rating, Sugarbeets” value (sugar beet; [5]) was 0. For the same compound, the “Sugarbeets plant response rating” value (sugar beet; [9]) was 0, the “Sugarbeets plant response rating” value (sugar beet; [7]) was 0 and the “Plant response rating, Velvetleaf” value (velvetleaf; [2]) was 0. The “Velvetleaf plant response rating” value (velvetleaf; [3]) was 0, the “Plant response rating, Velvetleaf” value (velvetleaf; [4]) was 0 and the “Plant response rating, Velvetleaf” value (velvetleaf; [5]) was 0. The “Velvetleaf plant response rating” value (velvetleaf; [9]) was 0, the “Velvetleaf plant response rating” value (velvetleaf; [7]) was 0 and the “Wheat plant response rating” value (wheat; [3]) was 0. The “Plant response rating, Wheat” value (wheat; [4]) was 0, the “Plant response rating, Wheat” value (wheat; [5]) was 0 and the “Wheat plant response rating” value (wheat; [9]) was 0. For the same compound, the “Wheat plant response rating” value (wheat; [7]) was 0, the “Wild oats plant response rating” value (wild oat; [3]) was 0 and the “Plant response rating, Wild oats” value (wild oat; [4]) was 0. The “Plant response rating, Wild oats” value (wild oat; [5]) was 0, the “Wild oats plant response rating” value (wild oat; [9]) was 0 and the “Wild oats plant response rating” value (wild oat; [7]) was 0. The “Plant response rating, Nutsedge” value (purple nutsedge; [2]) was 0, the “Nutsedge plant response rating” value (purple nutsedge; [3]) was 0 and the “Plant response rating, Nutsedge” value (purple nutsedge; [4]) was 0. The “Plant response rating, Nutsedge” value (purple nutsedge; [5]) was 0, the “Nutsedge plant response rating” value (purple nutsedge; [9]) was 0 and the “Nutsedge plant response rating” value (purple nutsedge; [7]) was 0. The “Plant response rating, Rice (0 to 10 scale, 0 is no effect, 10 is complete control)” value (rice; [10]) was 0, the “Rice plant response rating (0 to 10 scale, 0 is no effect, 10 is complete control)” value (rice; [11]) was 0 and the “Rice plant response rating” value (rice; [12]) was 0. For the same compound, the “Rice plant response rating” value (rice; [13]) was 0, the “Plant response rating, S. Flatsedge (0 to 10 scale, 0 is no effect, 10 is complete control)” value (smallflower flatsedge; [10]) was 0 and the “S. Flatsedge plant response rating (0 to 10 scale, 0 is no effect, 10 is complete control)” value (smallflower flatsedge; [11]) was 0. For the same compound, the “S. Flatsedge plant response rating” value (smallflower flatsedge; [12]) was 0, the “S. Flatsedge plant response rating” value (smallflower flatsedge; [13]) was 0 and the “Plant response rating, Ducksalad (0 to 10 scale, 0 is no effect, 10 is complete control)” value (duck salad; [10]) was 0. The “Ducksalad plant response rating (0 to 10 scale, 0 is no effect, 10 is complete control)” value (duck salad; [11]) was 0, the “Ducksalad plant response rating” value (duck salad; [12]) was 0 and the “Ducksalad plant response rating” value (duck salad; [13]) was 0. For the same compound, the “Plant response rating, Barnyardgrass (0 to 10 scale, 0 is no effect, 10 is complete control)” value (bamyardgrass; [10]) was 0, the “Barnyardgrass plant response rating (0 to 10 scale, 0 is no effect, 10 is complete control)” value (bamyardgrass; [11]) was 0 and the “Barnyardgrass plant response rating” value (bamyardgrass; [12]) was 0. For the same compound, the “Barnyardgrass plant response rating” value (bamyardgrass; [13]) was 0.
